Test results taken from patent US7429578B2, “Tricyclic inhibitors of poly(ADP-ribose) polymerases” (Agouron Pharmaceuticals, Inc., priority 1999, dated 2008).
Values joined by “and” are separate entries in the source; they are usually repeats but may differ in a detail not shown here. Equal values may be shown once.

What was measured:
A549 cells = assay: Cytotoxicity potentiation assay (topotecan); format: cell-based; settings: test compound at 0.4 μM, ratio of IC50 of topotecan alone to IC50 of topotecan with test compound
purified PARP protein = purified PARP protein (Homo sapiens, UniProt P09874); assay: PARP enzyme inhibition assay; format: biochemical; settings: [32P]NAD+ incorporation, 500 μM NAD+, 25° C.; two values in a cell = tested twice; read-out: Inhibition Constant Ki
Chain of purified PARP protein (P09874 whole entry): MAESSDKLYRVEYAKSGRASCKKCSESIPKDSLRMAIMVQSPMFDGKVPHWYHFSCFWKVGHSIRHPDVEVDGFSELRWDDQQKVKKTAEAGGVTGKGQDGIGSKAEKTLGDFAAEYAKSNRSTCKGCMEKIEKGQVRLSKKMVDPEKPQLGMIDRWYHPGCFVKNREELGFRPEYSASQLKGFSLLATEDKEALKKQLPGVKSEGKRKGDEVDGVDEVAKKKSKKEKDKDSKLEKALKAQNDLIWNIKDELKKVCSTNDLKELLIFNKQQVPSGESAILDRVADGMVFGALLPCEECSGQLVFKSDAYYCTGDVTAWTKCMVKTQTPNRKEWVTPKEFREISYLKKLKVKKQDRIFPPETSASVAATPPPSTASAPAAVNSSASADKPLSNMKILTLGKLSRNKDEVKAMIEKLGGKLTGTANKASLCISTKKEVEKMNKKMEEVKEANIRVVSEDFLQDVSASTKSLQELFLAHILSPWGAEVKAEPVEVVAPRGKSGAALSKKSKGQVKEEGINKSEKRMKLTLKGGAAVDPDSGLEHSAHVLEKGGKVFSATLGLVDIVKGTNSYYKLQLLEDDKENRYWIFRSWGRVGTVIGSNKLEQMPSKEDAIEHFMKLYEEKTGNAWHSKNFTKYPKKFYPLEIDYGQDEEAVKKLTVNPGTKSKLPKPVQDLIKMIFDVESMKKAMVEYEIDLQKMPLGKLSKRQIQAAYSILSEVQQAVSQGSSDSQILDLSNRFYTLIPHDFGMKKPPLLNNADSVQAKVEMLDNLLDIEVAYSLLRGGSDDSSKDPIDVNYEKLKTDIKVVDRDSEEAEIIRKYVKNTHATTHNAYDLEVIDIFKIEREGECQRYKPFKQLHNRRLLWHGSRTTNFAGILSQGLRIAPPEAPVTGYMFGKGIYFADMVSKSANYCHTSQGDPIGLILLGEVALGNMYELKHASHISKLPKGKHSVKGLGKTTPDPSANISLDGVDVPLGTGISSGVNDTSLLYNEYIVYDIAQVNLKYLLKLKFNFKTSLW

Row | Structure (SMILES) | Ki (purified PARP protein) | melting point | Cytotoxicity Potentiation PF50 (A549 cells)
1 | CN(C)Cc1ccc(-c2[nH]c3cccc4c3c2CNC4=O)cc1 [Compound 6] | – | – | 2.2
2 | Cn1cc2c3c(cccc31)C(=O)NCC2 [Compound 19, 1-N-Methyl-3,4,5,6-tetrahydro-1H-azepino[5,4,3-cd]indol-6-one] | 62 nM | 194 to 195 °C | –
3 | CN(C)Cc1ccc(-c2[nH]c3cccc4c3c2CCNC4=O)cc1 [Compound 21, 2-(4-(N,N-Dimethylamino)methylphenyl)-3,4,5,6-tetrahydro-1H-azepino[5,4,3-cd]indol-6-one] | – | – | 2.4
4 | O=C1NCCc2c(-c3ccc(F)cc3)[nH]c3cccc1c23 [Compound 23, 2-(4-Fluorophenyl)-3,4,5,6-tetrahydro-1H-azepino[5,4,3-cd]indol-6-one] | – | – | 2.3
5 | O=C1NCCc2c(-c3cc4ccccc4o3)[nH]c3cccc1c23 [Compound 32, 2-Benzofuran-2-yl-1,3,4,5-tetrahydro-azepino[5,4,3-cd]indol-6-one] | 11.3 nM | 207 °C (dec.) | –
6 | O=C1NCCc2c(-c3ccccc3Cl)[nH]c3cccc1c23 [Compound 38, 2-(2-Chlorophenyl)-1,3,4,5-tetrahydro-azepino[5,4,3-cd]indol-6-one] | 8.4 nM | 275 °C (dec.) | –
7 | O=C1NCCc2c(-c3ccc(F)cc3F)[nH]c3cccc1c23 [Compound 39, 2-(2,4-Difluoro-phenyl)-1,3,4,5-tetrahydro-azepino[5,4,3-cd]indol-6-one] | 4.8 nM | 196 to 197 °C | –
8 | O=C1NCCc2c(-c3cccc(Cl)c3)[nH]c3cccc1c23 [Compound 40, 2-(3-Chlorophenyl)-1,3,4,5-tetrahydro-azepino[5,4,3-cd]indol-6-one] | 5.2 nM | 147 to 149 °C | –
9 | CC(=O)Nc1cccc(-c2[nH]c3cccc4c3c2CCNC4=O)c1 [Compound TT, N-[3-(6-Oxo-3,4,5,6-tetrahydro-1H-azepino[5,4,3-cd]indol-2-yl)-phenyl]-acetamide] | 12.2 nM and 4.2 nM | 300.5 to 302 °C | –
10 | CCN(CC)CCc1ccc(-c2[nH]c3cccc4c3c2CCNC4=O)cc1 [Compound YY, 2-[4-(2-Diethylamino-ethyl)-phenyl]-3,4,5,6-tetrahydro-azepino[5,4,3-cd]indol-6-one] | 15.1 nM | 224 to 224.5 °C (dec.) | –
11 | CSc1ccc(-c2[nH]c3cccc4c3c2CCNC4=O)cc1 [EEEE, 2-(4-Methylsulfanyl-phenyl)-1,3,4,5-tetrahydro-azepino[5,4,3-cd]indol-6-one] | 2.9 nM | 250 to 251 °C | –
12 | CCCCCCCCOC(=O)c1[nH]c2cccc3c2c1CCNC3=O [FFF, 6-Oxo-3,4,5,6-tetrahydro-1H-azepino[5,4,3-cd]indole-2-carboxylic acid octyl ester] | 125 nM | 170 to 171 °C | –
13 | COc1ccccc1-c1[nH]c2cccc3c2c1CCNC3=O [III, 2-(2-Methoxy-phenyl)-1,3,4,5-tetrahydro-azepino[5,4,3-cd]indol-6-one] | 40 nM | 254 to 255 °C | –
14 | CNCc1ccc(-c2[nH]c3cc(F)cc4c3c2CCNC4=O)cc1 [IIII, 8-Fluoro-2-(4-methylaminomethyl-phenyl)-1,3,4,5-tetrahydro-azepino[5,4,3-cd]indol-6-one] | – | – | 2.6
15 | O=C(Nc1cccc2ccccc12)c1[nH]c2cccc3c2c1CCNC3=O [NNNN, 6-Oxo-1,3,4,5-tetrahydro-1H-azepino[5,4,3-cd]indole-2-carboxylic Acid naphthalen-1-ylamide] | 10 nM | 330 to 332 °C (dec.) | –
16 | CNC(=O)c1[nH]c2cccc3c2c1CCNC3=O [OOO, 6-Oxo-3,4,5,6-tetrahydro-1H-azepino[5,4,3-cd]indole-2-carboxylic acid methylamide] | 14 nM | 321 to 322 °C (dec.) | –
17 | CC(C)NC(=O)c1[nH]c2cccc3c2c1CCNC3=O [PPPP, 6-Oxo-1,3,4,5-tetrahydro-1H-azepino[5,4,3-cd]indole-2-carboxylic acid isopropylamide] | 32 nM | 261 to 262 °C (dec.) | –
18 | CC1=NNC(=O)c2cccc3[nH]cc1c23 [QQ, 1,5-Dihydro-3-methyl-[1,2]diazepino[4,5,6-cd]-indol-6-one] | 5.5 nM and 4.5 nM | 335 to 336 °C | –
19 | O=C1NCCc2c(-c3ccc(CN4CCCC4)cc3)[nH]c3cccc1c23 [UUUU, 2-(4-Pyrrolidin-1-ylmethylphenyl)-3,4,5,6-tetrahydro-1H-azepino[5,4,3-cd]indol-6-one] | – | – | 2.0
20 | O=C1NCCc2c(-c3ccc(Cl)c(C(F)(F)F)c3)[nH]c3cccc1c23 [WW, 2-(4-Chloro-3-trifluoromethyl-phenyl)-1,3,4,5-tetrahydro-azepino[5,4,3-cd]indol-6-one] | 4.4 nM | 118.5 to 119 °C | –
21 | O=C(O)c1[nH]c2cccc3c2c1CCNC3=O [XXX, 6-Oxo-3,4,5,6-tetrahydro-1H-azepino[5,4,3-cd]indole-2-carboxylic Acid] | 370 nM | 298 to 299 °C (dec.) | –

Further lines, with some results ahead:

Row | Ki (purified PARP protein) | melting point | Structure (SMILES) | Cytotoxicity Potentiation PF50 (A549 cells)
22 | 5 nM | 208 to 209 °C | O=C1NCCc2c(-c3ccc(C(F)(F)F)cc3)[nH]c3cccc1c23 [Compound 31, 2-(4-Trifluoromethyl-phenyl)-1,3,4,5-tetrahydro-azepino[5,4,3-cd]indol-6-one] | –
23 | 230 nM | 230 °C (dec.) | O=C1NCCc2c(-c3cc(C(F)(F)F)cc(C(F)(F)F)c3)[nH]c3cccc1c23 [Compound 33, 2-(3,5-bis-Trifluoromethyl-phenyl)-1,3,4,5-tetrahydro-azepino[5,4,3-cd]indol-6-one] | –
24 | 3.9 nM | 160 °C (dec.) | O=C1NCCc2c(-c3ccc(Br)cc3)[nH]c3cccc1c23 [Compound 34, 2-(4-Bromophenyl)-1,3,4,5-tetrahydro-azepino[5,4,3-cd]indol-6-one] | –
25 | 29 nM | 243 to 244 °C | CC(C)(C)c1ccc(-c2[nH]c3cccc4c3c2CCNC4=O)cc1 [Compound 36, 2-(4-tert-Butyl-phenyl)-1,3,4,5-tetrahydro-azepino[5,4,3-cd]indol-6-one] | –
26 | 24 nM | 207 to 208 °C | O=C1NCCc2c(CCc3ccccc3)[nH]c3cccc1c23 [Compound 37, 2-Phenethyl-1,3,4,5-tetrahydro-azepino[5,4,3-cd]indol-6-one] | –
27 | 5.1 nM | 266 to 267 °C | COC(=O)c1[nH]c2cccc3c2c1CCNC3=O [Compound 42, 6-Oxo-3,4,5,6-tetrahydro-1H-azepino[5,4,3-cd]indole-2-carboxylic acid methyl ester] | –
28 | 23 nM | 305 °C (dec.) | O=C1NCCc2c(-c3ccccc3O)[nH]c3cccc1c23 [DDD, 2-(2-Hydroxy-phenyl)-1,3,4,5-tetrahydro-azepino[5,4,3-cd]indol-6-one] | –
29 | 10.6 nM | 315 °C (dec.) | N#Cc1[nH]c2cccc3c2c1CCNC3=O [EEE, 6-Oxo-3,4,5,6-tetrahydro-1H-azepino[5,4,3-cd]indole-2-carbonitrile] | –
30 | 4.7 nM | 316 to 317 °C (dec.) | C[S+]([O-])c1ccc(-c2[nH]c3cccc4c3c2CCNC4=O)cc1 (centres unmarked) [FFFF, 2-(4-Methanesulfinyl-phenyl)-1,3,4,5-tetrahydro-azepino[5,4,3-cd]indol-6-one] | –
31 | 6.2 nM | 308 to 309 °C (dec.) | CS(=O)(=O)c1ccc(-c2[nH]c3cccc4c3c2CCNC4=O)cc1 [GGGG, 2-(4-Methanesulfonyl-phenyl)-1,3,4,5-tetrahydro-azepino[5,4,3-cd]indol-6-one] | –
32 | 5.3 nM | 250 °C (dec.) | O=C1NCCc2c(-c3ccncc3)[nH]c3cccc1c23 [JJJ, 2-Pyridin-4-yl-1,3,4,5-tetrahydro-azepino[5,4,3-cd]indol-6-one] | –
33 | 32 nM | 271 to 272 °C | CSc1ccccc1-c1[nH]c2cccc3c2c1CCNC3=O [LLL, 2-(2-Methylsulfanyl-phenyl)-1,3,4,5-tetrahydro-azepino[5,4,3-cd]indol-6-one] | –
34 | 13 nM | 191 to 192 °C | C#CCNC(=O)c1[nH]c2cccc3c2c1CCNC3=O [OOOO, 6-Oxo-1,3,4,5-tetrahydro-1H-azepino[5,4,3-cd]indole-2-carboxylic acid prop-2-ynylamide] | –
35 | 23 nM | 160 to 163 °C | O=C1NCCc2c(-c3cccc(-c4ccccc4)c3)[nH]c3cccc1c23 [RRR, 2-Biphenyl-3-yl-1,3,4,5-tetrahydro-azepino[5,4,3-cd]indol-6-one] | –
36 | 66 nM | 160 to 162 °C | COc1ccc(Cl)cc1-c1[nH]c2cccc3c2c1CCNC3=O [SSS, 2-(5-Chloro-2-methoxy-phenyl)-3,4,5,6-tetrahydro-azepino[5,4,3-cd]indol-6-one] | –
37 | 14 nM | 235 to 237 °C | O=C1NCCc2c(-c3cccc(CN4CCCCC4)c3)[nH]c3cccc1c23 [SS] | –
38 | 11.4 nM | 261 to 262 °C (dec.) | Nc1cccc(C#Cc2[nH]c3cccc4c3c2CCNC4=O)c1 [UUU, 2-(3-Amino-phenylethynyl)-1,3,4,5-tetrahydro-azepino[5,4,3-cd]indol-6-one] | –
39 | 263 nM | 345.5 to 346.5 °C (dec.) | O=C(O)c1ccc(-c2[nH]c3cccc4c3c2CCNC4=O)cc1 [WWW, 4-(6-Oxo-3,4,5,6-tetrahydro-1H-azepino[5,4,3-cd]indol-2-yl)-benzoic Acid] | –
40 | 4.6 nM | 261 to 262 °C | O=C1NCCc2c(-c3ccc4ccccc4c3)[nH]c3cccc1c23 [XX, 2-Naphthalen-2-yl-1,3,4,5-tetrahydro-azepino[5,4,3-cd]indol-6-one] | –
41 | 9.7 nM | 187.5 to 188.5 °C | O=C1NCCc2c(-c3cccc(CCO)c3)[nH]c3cccc1c23 [ZZ, 2-[3-(2-Hydroxy-ethyl)-phenyl]-1,3,4,5-tetrahydro-azepino[5,4,3-cd]indol-6-one] | –
